Source: ChEMBL document CHEMBL3868595, “Plazomicin is effective in a non-human primate pneumonic plague model” (Bioorg Med Chem, 2016)

Assays:
[1] = test system: Yersinia pestis; test: (§1) Antibacterial activity against Yersinia pestis Colorado 92 infected in African green monkey B6873 model assessed as bacterial burden in lung at 12.5 mg/kg, iv administered within 6 hrs post onset of sustained fever as 30 mins infusion for 5 days (reference value: 7.7 10^8CFU/g); type: functional, CO92
[2] = test system: Yersinia pestis; test: Antibacterial activity against Yersinia pestis Colorado 92 infected in African green monkey B6436 model assessed as bacterial burden in spleen at 25 mg/kg, iv administered within 6 hrs post onset of sustained fever as 30 mins infusion for 5 days (reference value: 1.6 10^9CFU/g); type: functional, organism-based; conditions: CO92
[3] = test system: Yersinia pestis; test: Antibacterial activity against Yersinia pestis Colorado 92 infected in African green monkey B6415 model assessed as bacterial burden in spleen at 25 mg/kg, iv administered within 6 hrs post onset of sustained fever as 30 mins infusion for 5 days (reference value: 1.6 10^9CFU/g); type: functional, CO92
[4] = test system: Yersinia pestis; test: Antibacterial activity against Yersinia pestis Colorado 92 infected in African green monkey B6960 model assessed as bacterial burden in spleen at 6.25 mg/kg, iv administered within 6 hrs post onset of sustained fever as 30 mins infusion for 5 days (reference value: 1.6 10^9CFU/g); type: functional, CO92
[5] = test system: Yersinia pestis; test: Antibacterial activity against Yersinia pestis Colorado 92 infected in African green monkey B6861 model assessed as bacterial burden in liver at 6.25 mg/kg, iv administered within 6 hrs post onset of sustained fever as 30 mins infusion for 5 days (reference value: 5.2 10^8CFU/g); type: functional, CO92
[6] = test system: Yersinia pestis; test: Antibacterial activity against Yersinia pestis Colorado 92 infected in African green monkey B6889 model assessed as bacterial burden in liver at 6.25 mg/kg, iv administered within 6 hrs post onset of sustained fever as 30 mins infusion for 5 days (reference value: 5.2 10^8CFU/g); type: functional, CO92
[7] = test system: Yersinia pestis; test: Antibacterial activity against Yersinia pestis Colorado 92 infected in African green monkey 8047 model assessed as bacterial burden in liver at 6.25 mg/kg, iv administered within 6 hrs post onset of sustained fever as 30 mins infusion for 10 days (reference value: 5.2 10^8CFU/g); type: functional, CO92
[8] = test system: Yersinia pestis; test: as §1, with “tracheobronchial lymph nodes” for “lung”, “10^9CFU/g)” for “10^8CFU/g)”; type: functional, organism-based; conditions: CO92, Lymph node
[9] = test system: Yersinia pestis; test: Antibacterial activity against Yersinia pestis Colorado 92 infected in African green monkey B6872 model assessed as bacterial burden in brain at 25 mg/kg, iv administered within 6 hrs post onset of sustained fever as 30 mins infusion for 5 days (reference value: 1.9 10^6CFU/g); type: functional, CO92
[10] = test system: Yersinia pestis; test: Antibacterial activity against Yersinia pestis Colorado 92 infected in African green monkey B6889 model assessed as bacterial burden in brain at 6.25 mg/kg, iv administered within 6 hrs post onset of sustained fever as 30 mins infusion for 5 days (reference value: 1.9 10^6CFU/g); type: functional, CO92
[11] = test system: Yersinia pestis; test: Antibacterial activity against Yersinia pestis Colorado 92 infected in African green monkey 8047 model assessed as bacterial burden in brain at 6.25 mg/kg, iv administered within 6 hrs post onset of sustained fever as 30 mins infusion for 10 days (reference value: 1.9 10^6CFU/g); type: functional, CO92
[12] = test system: Yersinia pestis; test: Antibacterial activity against Yersinia pestis Colorado 92 infected in African green monkey B6436 model assessed as bacterial burden in blood at 25 mg/kg, iv administered within 6 hrs post onset of sustained fever as 30 mins infusion for 5 days (reference value: 1.2 10^7CFU/ml); type: functional, organism-based; conditions: CO92
[13] = test system: Yersinia pestis; test: Antibacterial activity against Yersinia pestis Colorado 92 infected in African green monkey B6872 model assessed as bacterial burden in blood at 25 mg/kg, iv administered within 6 hrs post onset of sustained fever as 30 mins infusion for 5 days (reference value: 1.2 10^7CFU/ml); type: functional, organism-based; conditions: CO92
[14] = test system: Yersinia pestis; test: Antibacterial activity against Yersinia pestis Colorado 92 infected in African green monkey B6127 model assessed as bacterial burden in blood at 25 mg/kg, iv administered within 6 hrs post onset of sustained fever as 30 mins infusion for 10 days (reference value: 1.2 10^7CFU/ml); type: functional, organism-based; conditions: CO92
[15] = test system: Yersinia pestis; test: Antibacterial activity against Yersinia pestis Colorado 92 infected in African green monkey B6889 model assessed as bacterial burden in blood at 6.25 mg/kg, iv administered within 6 hrs post onset of sustained fever as 30 mins infusion for 5 days (reference value: 1.2 10^7CFU/ml); type: functional, CO92
[16] = test system: Yersinia pestis; test: Antibacterial activity against Yersinia pestis Colorado 92 infected in African green monkey B6988 model assessed as bacterial burden in blood at 6.25 mg/kg, iv administered within 6 hrs post onset of sustained fever as 30 mins infusion for 5 days (reference value: 1.2 10^7CFU/ml); type: functional, CO92
[17] = test system: African green monkey; test: Toxicity in African green monkey B6140 model infected with Yersinia pestis Colorado 92 assessed as blood urea nitrogen level at 25 mg/kg, iv administered within 6 hrs post onset of sustained fever as 30 mins infusion for 10 days (reference value: 24 mg/dl); type: organism-based; conditions: chlorocebus sabaeus, in vivo
[18] = test system: African green monkey; test: Toxicity in African green monkey 7337 model infected with Yersinia pestis Colorado 92 assessed as serum creatinine level at 25 mg/kg, iv administered within 6 hrs post onset of sustained fever as 30 mins infusion for 10 days (reference value: 0.7 mg/dl); type: organism-based; conditions: chlorocebus sabaeus, in vivo
[19] = test system: African green monkey; test: Toxicity in African green monkey B5994 model infected with Yersinia pestis Colorado 92 assessed as serum gamma glutamyl-transferase level at 25 mg/kg, iv administered within 6 hrs post onset of sustained fever as 30 mins infusion for 10 days (reference value: 35 IU/L); type: organism-based; conditions: chlorocebus sabaeus, in vivo
[20] = test system: African green monkey; test: Toxicity in African green monkey B6140 model infected with Yersinia pestis Colorado 92 assessed as serum alanine aminotransferase level at 25 mg/kg, iv administered within 6 hrs post onset of sustained fever as 30 mins infusion for 10 days (reference value: 180 IU/L); type: organism-based; conditions: chlorocebus sabaeus, in vivo
[21] = test system: African green monkey; test: Toxicity in African green monkey B5994 model infected with Yersinia pestis Colorado 92 assessed as serum lactate dehydrogenase level at 25 mg/kg, iv administered within 6 hrs post onset of sustained fever as 30 mins infusion for 10 days (reference value: 364 IU/L); type: organism-based; conditions: chlorocebus sabaeus, in vivo
[22] = test system: African green monkey; test: Toxicity in African green monkey 7972 model infected with Yersinia pestis Colorado 92 assessed as serum lactate dehydrogenase level at 25 mg/kg, iv administered within 6 hrs post onset of sustained fever as 30 mins infusion for 10 days (reference value: 381 IU/L); type: organism-based; conditions: chlorocebus sabaeus, in vivo
[23] = test system: African green monkey; test: Toxicity in African green monkey 7653 model infected with Yersinia pestis Colorado 92 assessed as serum lactate dehydrogenase level at 25 mg/kg, iv administered within 6 hrs post onset of sustained fever as 30 mins infusion for 10 days (reference value: 319 IU/L); type: organism-based; conditions: chlorocebus sabaeus, in vivo
[24] = Toxicity in African green monkey 7929 model infected with Yersinia pestis Colorado 92 assessed as total white blood cell count at 25 mg/kg, iv administered within 6 hrs post onset of sustained fever as 30 mins infusion for 10 days (reference value: 10.9 10^3/microL); type: organism-based; conditions: chlorocebus aethiops, in vivo
[25] = Toxicity in African green monkey 8067 model infected with Yersinia pestis Colorado 92 assessed as total white blood cell count at 25 mg/kg, iv administered within 6 hrs post onset of sustained fever as 30 mins infusion for 10 days (reference value: 10 10^3/microL); type: organism-based; conditions: chlorocebus aethiops, in vivo

For `CN[C@@H]1[C@@H](O)[C@@H](O[C@@H]2[C@@H](O)[C@H](O[C@H]3OC(CNCCO)=CC[C@H]3N)[C@@H](N)C[C@H]2NC(=O)[C@@H](O)CCN)OC[C@]1(C)O` [PLAZOMICIN], the Activity [1] was 16 CFU/g, the Activity [2] was “Below limit of detection” and the Activity [3] was 90 CFU/g. It also gave an Activity [4] of 23 CFU/g, an Activity [5] of 16 CFU/g and an Activity [6] of 2.2 ×10⁷ CFU/g. For the same compound, the Activity [7] was 1.3 ×10⁶ CFU/g, the Activity [8] was “Below limit of detection” and the Activity [9] was 4.1 ×10⁶ CFU/g. For the same compound, the Activity [10] was 80 CFU/g, the Activity [11] was 60 CFU/g and the Activity [12] was “Below limit of detection”. For the same compound, the Activity [13] was “Below limit of detection”, the Activity [14] was “Below limit of detection” and the Activity [15] was 93 CFU/ml. It also gave an Activity [16] of 11 CFU/ml, an Activity [17] of 27 mg/dL and an Activity [18] of 0.5 mg/dL. For the same compound, the Activity [19] was 38 IU/L, the Activity [20] was 71 IU/L and the Activity [21] was 403 IU/L. The Activity [22] was 398 IU/L, the Activity [23] was 426 IU/L and the Activity [24] was 8.5 ×10³ /uL. For the same compound, the Activity [25] was 9.4 ×10³ /uL.
